# Reference: article PMC9127186, “Molecular Basis Underlying Hepatobiliary and Renal Excretion of Phenolic Acids of Salvia miltiorrhiza Roots (Danshen)” (Frontiers in Pharmacology, 2022)
# Key:
# [1] = target: T1, rat Octn2 (Rattus norvegicus, UniProt O70594); conditions: 10 min, 100 μM
# T1 sequence (O70594 1-557): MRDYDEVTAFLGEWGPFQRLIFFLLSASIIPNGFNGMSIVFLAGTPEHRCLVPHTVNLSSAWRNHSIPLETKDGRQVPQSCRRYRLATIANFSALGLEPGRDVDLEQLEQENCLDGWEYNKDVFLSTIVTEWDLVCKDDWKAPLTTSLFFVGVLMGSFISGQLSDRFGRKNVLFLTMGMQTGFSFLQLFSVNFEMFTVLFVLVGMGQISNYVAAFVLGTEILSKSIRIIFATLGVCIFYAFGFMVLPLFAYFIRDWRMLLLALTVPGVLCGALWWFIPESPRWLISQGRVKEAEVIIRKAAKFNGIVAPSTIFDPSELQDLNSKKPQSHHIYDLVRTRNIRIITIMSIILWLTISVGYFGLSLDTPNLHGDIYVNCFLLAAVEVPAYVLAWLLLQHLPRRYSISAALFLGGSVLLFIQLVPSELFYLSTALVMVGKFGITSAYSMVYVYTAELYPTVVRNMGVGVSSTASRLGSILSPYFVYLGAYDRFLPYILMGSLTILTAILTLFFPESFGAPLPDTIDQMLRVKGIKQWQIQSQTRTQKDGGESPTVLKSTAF
# [2] = target: T2, human OAT1 (Homo sapiens, UniProt Q4U2R8); parameters: method as in Kang et al. (2021); conditions: ref Kang et al. (2021); cited from earlier work
# T2 sequence (Q4U2R8 1-563): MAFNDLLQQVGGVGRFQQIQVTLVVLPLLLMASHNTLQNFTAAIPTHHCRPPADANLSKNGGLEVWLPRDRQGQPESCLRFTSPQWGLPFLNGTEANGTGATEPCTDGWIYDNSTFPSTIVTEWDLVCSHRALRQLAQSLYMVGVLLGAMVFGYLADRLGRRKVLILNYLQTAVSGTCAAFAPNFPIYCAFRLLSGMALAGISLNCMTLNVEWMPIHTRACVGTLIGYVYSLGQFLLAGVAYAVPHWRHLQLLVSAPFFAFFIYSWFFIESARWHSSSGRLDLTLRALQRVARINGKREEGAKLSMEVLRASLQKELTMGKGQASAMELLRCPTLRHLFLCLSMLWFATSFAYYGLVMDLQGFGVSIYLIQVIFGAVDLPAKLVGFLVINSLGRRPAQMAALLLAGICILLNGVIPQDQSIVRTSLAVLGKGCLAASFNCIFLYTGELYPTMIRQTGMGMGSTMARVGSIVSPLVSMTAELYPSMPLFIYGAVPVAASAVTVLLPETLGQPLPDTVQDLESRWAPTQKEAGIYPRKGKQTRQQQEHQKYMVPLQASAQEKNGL
# [3] = target: T3, human OCT2 (Homo sapiens, UniProt O15244); conditions: 10 min, 100 μM
# T3 sequence (O15244 1-555): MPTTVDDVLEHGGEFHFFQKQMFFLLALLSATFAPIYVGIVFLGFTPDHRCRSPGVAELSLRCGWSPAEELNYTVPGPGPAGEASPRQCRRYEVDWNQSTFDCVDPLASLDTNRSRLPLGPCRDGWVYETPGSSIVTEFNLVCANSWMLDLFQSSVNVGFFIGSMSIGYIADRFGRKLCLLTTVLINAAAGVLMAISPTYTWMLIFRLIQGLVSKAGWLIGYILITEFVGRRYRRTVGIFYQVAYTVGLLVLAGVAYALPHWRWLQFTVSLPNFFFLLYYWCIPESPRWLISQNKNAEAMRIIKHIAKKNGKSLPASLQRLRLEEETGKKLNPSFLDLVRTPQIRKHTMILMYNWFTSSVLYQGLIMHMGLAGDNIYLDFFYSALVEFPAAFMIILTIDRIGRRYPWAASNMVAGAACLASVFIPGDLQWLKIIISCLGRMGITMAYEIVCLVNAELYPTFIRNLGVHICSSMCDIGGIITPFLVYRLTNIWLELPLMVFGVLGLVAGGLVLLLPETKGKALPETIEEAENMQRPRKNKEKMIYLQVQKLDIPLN
# [4] = target: T4, rat Oct3 (Rattus norvegicus, UniProt O88446)
# T4 sequence (O88446 1-551): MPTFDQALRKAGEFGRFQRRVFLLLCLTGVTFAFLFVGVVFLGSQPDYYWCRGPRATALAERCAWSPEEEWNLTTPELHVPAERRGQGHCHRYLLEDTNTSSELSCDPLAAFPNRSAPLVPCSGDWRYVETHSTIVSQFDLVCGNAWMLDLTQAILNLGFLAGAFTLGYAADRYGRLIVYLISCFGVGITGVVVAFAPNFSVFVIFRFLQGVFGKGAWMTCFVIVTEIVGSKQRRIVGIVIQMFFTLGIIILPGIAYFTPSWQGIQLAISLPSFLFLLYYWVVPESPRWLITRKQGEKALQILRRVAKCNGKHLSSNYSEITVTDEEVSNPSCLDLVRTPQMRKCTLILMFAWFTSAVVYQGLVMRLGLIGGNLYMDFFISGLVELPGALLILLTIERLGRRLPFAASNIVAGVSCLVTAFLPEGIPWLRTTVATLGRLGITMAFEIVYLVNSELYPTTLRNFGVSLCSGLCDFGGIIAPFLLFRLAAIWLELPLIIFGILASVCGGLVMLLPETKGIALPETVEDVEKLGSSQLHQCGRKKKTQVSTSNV
# [5] = tested on: OATP1B1; parameters: method as in Li et al., 2019; conditions: ref Li et al., 2019; read-out: half maximum inhibitory concentration (IC50) for OATP1B1; cited from earlier work
Compound,TransportTC/TransportMC ratio (net transport ratio) [1],substrate of human OAT1 [2],TransportTC/TransportMC ratio (net transport ratio) [3],TransportTC/TransportMC ratio (net transport ratio) [4],IC50 [5]
"O=C(/C=C/c1ccc(O)c(O)c1)O[C@H](Cc1ccc(O)c(O)c1)C(=O)O [Rosmarinic acid, rosmarinic acid]",1.14 ± 0.04,substrate,0.85 ± 0.29,,
"O=C(/C=C/c1ccc(O)c(O)c1/C=C/c1ccc(O)c(O)c1)O[C@H](Cc1ccc(O)c(O)c1)C(=O)O [Salvianolic acid A, salvianolic acid A]",0.95 ± 0.44,,0.93 ± 0.32,1.19 ± 0.14,
salvianolic acid B,,,,,38 µM
